Test [1] addresses T1, IRAK4 (Homo sapiens, UniProt Q9NWZ3).
T1 sequence (Q9NWZ3 1-460): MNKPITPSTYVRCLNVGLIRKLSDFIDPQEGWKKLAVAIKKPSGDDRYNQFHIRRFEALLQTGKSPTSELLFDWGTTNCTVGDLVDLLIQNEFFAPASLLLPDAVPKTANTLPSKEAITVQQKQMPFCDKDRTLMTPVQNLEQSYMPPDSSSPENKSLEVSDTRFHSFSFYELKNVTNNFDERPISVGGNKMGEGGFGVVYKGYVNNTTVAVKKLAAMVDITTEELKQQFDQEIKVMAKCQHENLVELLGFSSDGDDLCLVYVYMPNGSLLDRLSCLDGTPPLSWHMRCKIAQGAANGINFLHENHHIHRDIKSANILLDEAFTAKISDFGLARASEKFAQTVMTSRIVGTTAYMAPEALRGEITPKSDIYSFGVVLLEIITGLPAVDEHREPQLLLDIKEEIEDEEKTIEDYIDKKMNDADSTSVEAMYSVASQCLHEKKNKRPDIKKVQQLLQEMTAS
The test is described as follows: WB detection of proteolysis (Western Blot, THP-1 cells). Conditions: Western Blot, THP-1 cells, 24 h; for DC50: read-out: DC50. It counts as cell-based. The procedure: The degradation level of IRAK4 in THP-1 cells was detected by Western Blot technology. […] 1000X gradient dilution stock of the compound was prepared, with the highest concentration set at 300 µM. The dilution was carried out using DMSO in a 1:3 dilution factor, yielding a total of 9 concentrations. 1000X gradient dilutions of the compound were added to a 12-well plate, with 1 µL per well. Incubation was performed under conditions of 37°C and 5% CO2 for 24 h, and the cells were collected into 2 mL of centrifuge tubes and centrifuged at 5000 rpm for 5 min, and the supernatant was removed. 100 µL of RIPA lysis buffer (Beyotime, P0013C) was added and mixed uniformly, then the cells were lysed on ice for 10 min, centrifuged at 4°C at 14000 rpm for 10 min, and the supernatant was collected. Protein content was determined with BCA (Solarbio, PC0020-10*50T). 75 µL of the supernatant was taken, and 25 µL of NuPAGE LDS Sample Buffer (4X) (Thermo B0007) was added to each tube (5% β-mercaptoethanol was added before use) to prepare samples, and the samples were boiled in a metal bath at 100°C for 5 min. […] 1x NuPAGE™ MOPS SDS electrophoresis buffer (20X) (Invitrogen, NP0001) was prepared, and the electrophoresis instrument was set to a constant current of 300 mA for 100 min, and the protein was transferred to a PVDF membrane (Millipore, IPVH00010). […] The membrane was washed three times with 1x TBST (Elabscience E-BC-R335) the next day, each time for 5 min. […] The membrane was washed three times with TBST, each time for 5 min. The Odyssey imaging system Li-cor Odyssey CLx was used to detect signals and analyze data. GraphPad (Prism 9.3) software was used to perform analysis for data, and non-linear fitting (non-liner inhibitor (Bell-shaped)) and four parameters (4 parameter) were used, and the parameters was as follows: Span1 = Plateau1−Dip [formula] Span2 = Plateau2−Dip [formula] Section1 = Span1/(1+10^(∧)((LogEC50_1−X)*nH1)) [formula] Section2 = Span2/(1+10^(∧)((X−LogEC50_2)*nH2)) [formula]
The equation was as follows: Y=Dip+Section1+Section2.

The target in test [2] is T1, IRAK4. The test is described as follows: Hibit fluorescence detection of proteolysis (IRAK4-HiBiT in HEK293T cells). It counts as cell-based. On the set-up: host or cells: HEK293T (ATCC). Conditions: for Dmax: HEK-293T; for DC50: IRAK4-HiBiT, HEK293T cells, 24 h. The gist of the method:
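Degradation read-out: luminescence from lytic HiBiT detection (15 min, room temperature) after 24 h compound exposure (37 °C, 5% CO2) of HEK293T cells transiently expressing IRAK4 fused to a HiBiT tag. Data fitted to a bell-shaped four-parameter model giving two EC50 values.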

Each structure is given as a SMILES string.

`Cn1c(=O)n(C2CCC(=O)NC2=O)c2cccc(N3CCC4(CCN(C[C@H]5CC[C@H](n6cc(-n7cc(-c8cnn9ccc(N%10CCC[C@@H](O)C%10)nc89)nn7)c(C(F)F)n6)CC5)C4)CC3)c21` (stereo partly shown) [Example 248]: the DC50 in test [1] is < 10 nM; in test [2], < 0.5 nM. Further, the Dmax in test [1] (read-out: Dmax) was > 70%; in test [2], > 80%.

Consider `Cn1c(=O)n(C2CCC(=O)NC2=O)c2cccc(CN3CC4(CCC(CN[C@H]5CC[C@H](n6cc(-n7cc(-c8ccc9cc(C(N)=O)cnn89)nn7)c(C(F)F)n6)CC5)CC4)C3)c21` (stereo partly shown) [Example 60], for which the figures for the DC50 in test [1] and in test [2] were 10 to 30 nM and 1 to 5 nM, respectively. Further, the results for the Dmax in test [1] (read-out: Dmax) and in test [2] were > 70% and > 80%, respectively.

As to `Cn1c(=O)n(C2CCC(=O)NC2=O)c2cccc(N3CCN(C[C@H]4CC[C@H](n5cc(-n6cc(-c7cnn8ccc(N9CCC(O)CC9)nc78)nn6)c(C(F)F)n5)CC4)CC3)c21` (stereo partly shown) [Example 140], the DC50 in test [1] is 10 to 30 nM; in test [2], < 0.5 nM. Besides, the Dmax in test [1] (read-out: Dmax) was > 70%; in test [2], > 80%.

For `Cn1c(=O)n(C2CCC(=O)NC2=O)c2cccc(N3CCC4(CCN(C[C@H]5CC[C@H](n6cc(-n7cc(-c8cnn9ccc(N%10CCC[C@H](O)C%10)nc89)nn7)c(C(F)F)n6)CC5)CC4)CC3)c21` (stereo partly shown) [Example 142], the DC50 in test [1] was < 10 nM; in test [2] it was < 0.5 nM. The Dmax was > 70% in test [1] (read-out: Dmax) and > 80% in test [2].

Regarding `C[C@H]1CN(c2cccc3c2n(C)c(=O)n3C2CCC(=O)NC2=O)CCN1C[C@H]1CC[C@H](n2cc(-n3cc(-c4ccc5cc(C(N)=O)cnn45)nn3)c(C(F)F)n2)CC1` (stereo partly shown) [Example 96], the DC50 in test [1] is < 10 nM; in test [2], < 0.5 nM. The Dmax was > 70% in test [1] (read-out: Dmax) and > 80% in test [2].

In the case of `C[C@H]1CN(C[C@H]2CC[C@H](n3cc(-n4cc(-c5cnn6ccc(N[C@@H]7CCCC[C@@H]7O)nc56)nn4)c(C(F)F)n3)CC2)CCN1C1CCN(c2cccc3c2n(C)c(=O)n3C2CCC(=O)NC2=O)CC1` (stereo partly shown) [Example 166], the DC50 in test [1] is < 10 nM. Also, the Dmax in test [1] (read-out: Dmax) is > 70%.

For the compound `C[C@@H]1CN(C[C@H]2CC[C@H](n3cc(-n4cc(-c5cnn6ccc(N7CCC[C@H](O)C7)nc56)nn4)c(C(F)F)n3)CC2)CCN1C1CCN(c2cccc3c2n(C)c(=O)n3C2CCC(=O)NC2=O)CC1` (stereo partly drawn) [Example 294, 3-(4-(4-((R)-4-(((1R,4R)-4-(3-(difluoromethyl)-4-(4-(5-((S)-3-hydroxypiperidin-1-yl)pyrazolo[1,5-a]pyrimidin-3-yl)-1H-1,2,3-triazol-1-yl)-1H-pyrazol-1-yl)cyclohexyl)methyl)-2-methylpiperazin-1-yl)piperidin-1-yl)-3-methyl-2-oxo-2,3-dihydro-1H-benzo[d]imidazol-1-yl)piperidine-2,6-dione], the DC50 in test [1] is < 10 nM. The Dmax in test [1] (read-out: Dmax) is > 70%.

As for `Cn1c(=O)n(C2CCC(=O)NC2=O)c2cccc(N3CCC4(CCN(CC5CCC(n6cc(-n7cc(-c8cnn9ccc(N%10CCO[C@@H](CO)C%10)nc89)nn7)c(C(F)F)n6)CC5)CC4)CC3)c21` (stereo partly shown) [Example 176], in test [1], the Dmax result is recorded as “A (Dmax ≥ 70%)” and the DC50 was < 10 nM.

As for `Cn1c(=O)n(C2CCC(=O)NC2=O)c2cccc(N3CCC(CN4CCC5(CCC(n6cc(-n7cc(-c8cnn9ccc(N%10CCC[C@H](O)C%10)nc89)nn7)c(C(F)F)n6)CC5)CC4)CC3)c21` (stereo partly shown) [Example 290], the DC50 in test [1] was < 10 nM. In test [1] (read-out: Dmax), the Dmax was > 70%.

Consider `Cn1c(=O)n(C2CCC(=O)NC2=O)c2cccc(N3CCCN(C[C@H]4CC[C@H](n5cc(-n6cc(-c7ccc8cc(C(N)=O)cnn78)nn6)c(C(F)F)n5)CC4)CC3)c21` (relative stereo) [Example 289, 7-(1-(3-(difluoromethyl)-1-((1R,4R)-4-((4-(1-(2,6-dioxopiperidin-3-yl)-3-methyl-2-oxo-2,3-dihydro-1H-benzoimidazol-4-yl)-1,4-diazepan-1-yl)methyl)cyclohexyl)-1H-pyrazol-4-yl)-1H-1,2,3-triazol-4-yl)pyrrolo[1,2-b]pyridazine-3-carboxamide], for which the DC50 in test [1] is < 10 nM. The Dmax in test [1] (read-out: Dmax) is < 60%.

For the compound `Cn1c(=O)n(C2CCC(=O)NC2=O)c2cccc(N3CCC(CN4CCC5(CCC(n6cc(-n7cc(-c8ccc9cc(C(N)=O)cnn89)nn7)c(C(F)F)n6)CC5)CC4)CC3)c21` (stereo not shown) [Example 172], in test [1], the DC50 is < 10 nM. The Dmax in test [1] (read-out: Dmax) was > 70%.

As to `Cn1nc(C2CCC(=O)NC2=O)c2cccc(N3CCC(N4CCN(C[C@H]5CC[C@H](n6cc(-n7cc(-c8cnn9ccc(N%10CCC[C@H](O)C%10)nc89)nn7)c(C(F)F)n6)CC5)CC4)CC3)c21` (stereo partly shown) [Example 293], the DC50 in test [1] was < 10 nM. Moreover, the Dmax in test [1] (read-out: Dmax) is > 70%.

For the compound `C[C@H]1CN(C2CCN(c3cccc4c3n(C)c(=O)n4C3CCC(=O)NC3=O)CC2)CCN1C[C@H]1CC[C@H](n2cc(-n3cc(-c4cnn5ccc(N6CCC[C@H](O)C6)nc45)nn3)c(C(F)F)n2)CC1` (stereo partly drawn) [Example 291, 3-(4-(4-((S)-4-(((1R,4S)-4-(3-(difluoromethyl)-4-(4-(5-((S)-3-hydroxypiperidin-1-yl)pyrazolo[1,5-a]pyrimidin-3-yl)-1H-1,2,3-triazol-1-yl)-1H-pyrazol-1-yl)cyclohexyl)methyl)-3-methylpiperazin-1-yl)piperidin-1-yl)-3-methyl-2-oxo-2,3-dihydro-1H-benzo[d]imidazol-1-yl)piperidine-2,6-dione], the DC50 in test [1] is < 10 nM. The Dmax in test [1] (read-out: Dmax) is > 70%.

Consider `Cn1c(=O)n(C2CCC(=O)NC2=O)c2cccc(N3CCC(CN4CCC5(CCC(n6cc(-n7cc(-n8ccc9cc(C(N)=O)cnc98)nn7)c(C(F)F)n6)CC5)CC4)CC3)c21` (stereo not shown) [Example 286], for which the DC50 in test [1] was > 30 nM. Also, in test [1] (read-out: Dmax), the Dmax was < 60%.

Regarding `C[C@@H]1CN(C2CCN(c3cccc4c3n(C)c(=O)n4C3CCC(=O)NC3=O)CC2)CCN1C[C@H]1CC[C@H](n2cc(-n3cc(-c4cnn5ccc(N6CCC[C@H](O)C6)nc45)nn3)c(C(F)F)n2)CC1` (stereo partly shown) [Example 292], the DC50 in test [1] is < 10 nM. The Dmax in test [1] (read-out: Dmax) was > 70%.

In the case of `C[C@@H]1CC2(CCN(c3cccc4c3n(C)c(=O)n4C3CCC(=O)NC3=O)CC2)CN1C[C@H]1CC[C@H](n2cc(-n3cc(-c4cnn5ccc(N6CCC[C@H](O)C6)nc45)nn3)c(C(F)F)n2)CC1` (stereo partly shown) [Example 296], the DC50 in test [1] was 10 to 30 nM. In addition, the Dmax in test [1] (read-out: Dmax) was > 70%.

For `Cn1c(=O)n(C2CCC(=O)NC2=O)c2cccc(N3CCC(CN4CCC5(CCC(n6cc(-n7cc(-c8cnn9ccc(N[C@@H]%10CCCC[C@@H]%10O)nc89)nn7)c(C(F)F)n6)CC5)CC4)CC3)c21` (stereo partly drawn) [Example 171, 3-(4-(4-((9-(3-(difluoromethyl)-4-(4-(5-(((1R,2S)-2-hydroxycyclohexyl)amino)pyrazolo[1,5-a]pyrimidin-3-yl)-1H-1,2,3-triazol-1-yl)-1H-pyrazol-1-yl]-3-azaspiro[5.5]undecan-3-yl)methyl)piperidin-1-yl)-3-methyl-2-oxo-2,3-dihydro-1H-benzo[d]imidazol-1-yl)piperidine-2,6-dione], the DC50 in test [1] is < 10 nM. Also, the Dmax in test [1] (read-out: Dmax) was > 70%.

With `Cn1c(=O)n(C2CCC(=O)NC2=O)c2cccc(N3CCC(N4CCN(C[C@H]5CC[C@H](n6cc(-n7cc(-c8cnn9ccc(N%10CCO[C@@H](CO)C%10)nc89)nn7)c(C(F)F)n6)CC5)CC4)CC3)c21` (stereo partly shown) [Example 175], the DC50 in test [1] is < 10 nM. Also, in test [1] (read-out: Dmax), the Dmax is > 70%.
